# Experimental data as given in patent US11274083B2, “Substituted thiophenyl uracils, salts thereof and the use thereof as herbicidal agents” (Syngenta Crop Protection AG, priority 2017, dated 2022).
# Legend:
# Assay type in all cases: in vivo
# [1] = tested on: Abutilon theophrasti; assay: Herbicidal action post-emergence, greenhouse pot test
# Procedure, shortened: (§1)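 Efficacy is a visual percentage, 0% like untreated and 100% dead, read about 3 weeks after treatment under optimal greenhouse growth. Treatment was a post-emergence spray of aqueous WP or EC preparations at 80 g/ha or lower with 0.5% additive.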
# [2] = tested on: Alopecurus myosuroides; assay: as above; details: scored visually after about 3 weeks vs untreated controls
# Procedure, shortened: as §1
# [3] = tested on: Amaranthus retroflexus; assay: as above; details: application rate 20 g/ha
# Procedure, shortened: as §1
# [4] = tested on: Avena fatua; assay: as above; details: application rate 20 g/ha
# Procedure, shortened: as §1
# [5] = tested on: Echinochloa crus-galli; assay: as above
# Procedure, shortened: as §1
# [6] = tested on: Hordeum murinum; assay: as above
# Procedure, shortened: as §1
# [7] = tested on: Lolium rigidum; assay: as above
# Procedure, shortened: as §1
# [8] = tested on: Matricaria inodora; assay: as above; details: application rate 20 g/ha
# Procedure, shortened: as §1
# [9] = tested on: Pharbitis purpurea; assay: as above
# Procedure, shortened: as §1
# [10] = tested on: Polygonum convolvulus; assay: as above
# Procedure, shortened: as §1
# [11] = tested on: Setaria viridis; assay: as above
# Procedure, shortened: as §1
# [12] = tested on: Stellaria media; assay: as above
# Procedure, shortened: as §1
# [13] = tested on: Veronica persica; assay: as above
# Procedure, shortened: as §1
# [14] = tested on: Viola tricolor; assay: as above
# Procedure, shortened: as §1
# [15] = tested on: Oryza sativa; assay: Crop compatibility post-emergence, greenhouse pot test
# Procedure, shortened: (§2)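 Sandy loam pots, greenhouse; one-leaf stage, 2–3 wk post-sowing; WP or EC, aq. spray on green parts, 0.5% additive, 600 L/ha; ~3 wk; visual score % vs untreated (0 = control-like, 100 = dead).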
# [16] = tested on: Zea mays; assay: as above; details: application rate 5 g/ha
# Procedure, shortened: as §2
# [17] = tested on: Digitaria sanguinalis; assay: Herbicidal action post-emergence, greenhouse pot test; details: application rate 20 g/ha
# [18] = tested on: Abutilon theophrasti; assay: Herbicidal action pre-emergence, greenhouse pot test; details: application rate 320 g/ha
# Procedure, shortened: (§3)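 Soil-applied pre-emergence treatment: aqueous suspension or emulsion of WP or EC formulation, 0.5% additive, water equivalent to 600 L/ha, dose of 320 g/ha or lower. Readout is visual percent efficacy after ~3 weeks, where 0% equals control plants.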
# [19] = tested on: Alopecurus myosuroides; assay: as above; details: application rate 320 g/ha
# Procedure, shortened: as §3
# [20] = tested on: Amaranthus retroflexus; assay: as above; details: application rate 20 g/ha
# Procedure, shortened: as §3
# [21] = tested on: Avena fatua; assay: as above; details: application rate 320 g/ha
# Procedure, shortened: as §3
# [22] = tested on: Cyperus esculentus; assay: as above; details: application rate 320 g/ha
# Procedure, shortened: as §3
# [23] = tested on: Echinochloa crus-galli; assay: as above; details: application rate 320 g/ha
# Procedure, shortened: as §3
# [24] = tested on: Hordeum murinum; assay: as above; details: application rate 320 g/ha
# Procedure, shortened: as §3
# [25] = tested on: Lolium rigidum; assay: as above
# Procedure, shortened: as §3
# [26] = tested on: Pharbitis purpurea; assay: as above; details: application rate 320 g/ha
# Procedure, shortened: as §3
# [27] = tested on: Polygonum convolvulus; assay: as above; details: application rate 320 g/ha
# Procedure, shortened: as §3
# [28] = tested on: Setaria viridis; assay: as above; details: application rate 320 g/ha
# Procedure, shortened: as §3
# [29] = tested on: Stellaria media; assay: as above; details: application rate 320 g/ha
# Procedure, shortened: as §3
# [30] = tested on: Veronica persica; assay: as above
# Procedure, shortened: as §3
# [31] = tested on: Viola tricolor; assay: as above; details: application rate 320 g/ha
# Procedure, shortened: as §3
# [32] = tested on: Matricaria inodora; assay: as above; details: application rate 320 g/ha
# [33] = tested on: Triticum aestivum; assay: Crop compatibility post-emergence, greenhouse pot test; details: application rate 5 g/ha
# Procedure, shortened: as §2
SMILES,Amaranthus retroflexus (Efficacy in %) [3] [%],Hordeum murinum (Efficacy in %) ([6]; application rate 20 g/ha) [%],Matricaria inodora (Efficacy in %) [8] [%],Polygonum convolvulus (Efficacy in %) ([10]; application rate 20 g/ha) [%],Stellaria media (Efficacy in %) ([12]; application rate 20 g/ha) [%],Abutilon theophrasti (Efficacy in %) ([1]; application rate 80 g/ha) [%],Echinochloa crus-galli (Efficacy in %) ([5]; application rate 80 g/ha) [%],Pharbitis purpurea (Efficacy in %) ([9]; application rate 80 g/ha) [%],Setaria viridis (Efficacy in %) ([11]; application rate 80 g/ha) [%],Veronica persica (Efficacy in %) ([13]; application rate 80 g/ha) [%],Viola tricolor (Efficacy in %) ([14]; application rate 80 g/ha) [%],Abutilon theophrasti (Efficacy in %) [18] [%],Amaranthus retroflexus (Efficacy in %) [20] [%],Avena fatua (Efficacy in %) [21] [%],Cyperus esculentus (Efficacy in %) [22] [%],Echinochloa crus-galli (Efficacy in %) [23] [%],Hordeum murinum (Efficacy in %) [24] [%],Pharbitis purpurea (Efficacy in %) [26] [%],Polygonum convolvulus (Efficacy in %) [27] [%],Setaria viridis (Efficacy in %) [28] [%],also measured
CC(Sc1cc(-n2c(=O)cc(C(F)(F)F)n(C)c2=O)c(F)cc1Cl)C(=O)OC1COC(=O)C1 (stereo not drawn) [I.1-144],100,80,100,100,80,–,–,–,–,–,–,–,–,–,–,–,–,–,–,–,Abutilon theophrasti (Efficacy in %) ([1]; application rate 20 g/ha): 100%; Alopecurus myosuroides (Efficacy in %) ([2]; application rate 20 g/ha): 80%; Avena fatua (Efficacy in %) [4]: 100%; Echinochloa crus-galli (Efficacy in %) ([5]; application rate 20 g/ha): 100%; Lolium rigidum (Efficacy in %) ([7]; application rate 20 g/ha): 100%; Pharbitis purpurea (Efficacy in %) ([9]; application rate 20 g/ha): 100%; Setaria viridis (Efficacy in %) ([11]; application rate 20 g/ha): 100%; Veronica persica (Efficacy in %) ([13]; application rate 20 g/ha): 100%; Viola tricolor (Efficacy in %) ([14]; application rate 20 g/ha): 100%; Oryza sativa (Efficacy in %) ([15]; application rate 5 g/ha): 20%; Zea mays (Efficacy in %) [16]: 10%; Digitaria sanguinalis (Efficacy in %) [17]: 80%
COC(=O)CCOC(=O)CSc1cc(-n2c(=O)cc(C(F)(F)F)n(C)c2=O)c(F)cc1Cl [I.8-2],100,80,100,100,100,100,100,100,100,100,100,100,100,80,90,100,80,100,100,100,Alopecurus myosuroides (Efficacy in %) ([2]; application rate 80 g/ha): 80%; Lolium rigidum (Efficacy in %) ([7]; application rate 80 g/ha): 90%; Alopecurus myosuroides (Efficacy in %) [19]: 80%; Lolium rigidum (Efficacy in %) ([25]; application rate 80 g/ha): 90%; Stellaria media (Efficacy in %) [29]: 100%; Veronica persica (Efficacy in %) ([30]; application rate 80 g/ha): 100%; Viola tricolor (Efficacy in %) [31]: 100%; Matricaria inodora (Efficacy in %) [32]: 100%
COC(=O)COC(=O)CSc1cc(-n2c(=O)cc(C(F)(F)F)n(C)c2=O)c(F)cc1Cl [I.8-42],100,–,100,–,–,100,100,100,100,100,100,100,100,80,100,100,80,100,100,100,Hordeum murinum (Efficacy in %) ([6]; application rate 80 g/ha): 80%; Polygonum convolvulus (Efficacy in %) ([10]; application rate 80 g/ha): 100%; Stellaria media (Efficacy in %) ([12]; application rate 80 g/ha): 100%; Oryza sativa (Efficacy in %) ([15]; application rate 20 g/ha): 0%; Triticum aestivum (Efficacy in %) [33]: 20%; Lolium rigidum (Efficacy in %) ([25]; application rate 320 g/ha): 80%; Stellaria media (Efficacy in %) [29]: 100%; Veronica persica (Efficacy in %) ([30]; application rate 320 g/ha): 100%; Viola tricolor (Efficacy in %) [31]: 100%; Matricaria inodora (Efficacy in %) [32]: 100%
